Data on one compound can be found in patent publication US4024277A, “Phosphoro-aminosulfenyl derivatives of benzofuran carbamates” (priority 1975, dated 1977).

The nature of data set [1]: Mammalian toxicity, 14-day LD50 in rats. Particulars: rat, in vivo, Wistar derived albino rats, method of Miller and Tainter. From the text: The compounds of this invention are characterized by advantageous mammalian toxicity values when compared with values for related compounds. This is shown by comparative values obtained with Wistar derived albino rats in 14-day tests. The animals were fed, housed and watered in accordance with standard laboratory procedures. The 14-day LD50 determination was estimated in accord with the method of Miller and Tainter (Experimental Biology and Medicine, 57, pp. 261-264, 1944).

Data set [2] has as its system beetles, true bugs, aphids and acarids. The following applies: U.S. Pat. No. 3,474,171; cited from earlier work.

Structures are written as SMILES.

The compound `CNC(=O)Oc1cccc2c1OC(C)(C)C2` [carbofuran, 2,3-dihydro-2,2-dimethyl-7-benzofuranyl methyl-carbamate, reference compound] displayed an LD50 at 336 h in data set [1] of 12.2 mg/kg. Also, the “control of beetles, true bugs, aphids and acarids” value in data set [2] was “effective in control of beetles, true bugs, aphids and acarids”.

The LD50 is the dose expected to kill half of the subjects tested. Read a high LD50 as lower toxicity.
